Reference: publication PMC11667226 (Theranostics, 2025)
Non-standard residues stand in square brackets, D forms with d. Residues, ends and D or L forms follow the SMILES beside them. *: point of attachment. X1 = CC1(C)C(=CC=CC=CC=CC2=[N+](CCCCCC(=O)*)c3ccc4ccccc4c3C2(C)C)N(CCCCS(=O)(=O)[O-])c2ccc3ccccc3c21; Cha = N[C@@H](CC1CCCCC1)C(=O)O

Assays:
[1] = target: T1, uPAR (Homo sapiens, UniProt Q03405); experiment: Morphological co-localization between FG001 signal, tumor tissue and uPAR expression (Typhoon/Odyssey scan, IHC, H&E)
T1 construct: from tissue
T1 sequence (Q03405 23-335): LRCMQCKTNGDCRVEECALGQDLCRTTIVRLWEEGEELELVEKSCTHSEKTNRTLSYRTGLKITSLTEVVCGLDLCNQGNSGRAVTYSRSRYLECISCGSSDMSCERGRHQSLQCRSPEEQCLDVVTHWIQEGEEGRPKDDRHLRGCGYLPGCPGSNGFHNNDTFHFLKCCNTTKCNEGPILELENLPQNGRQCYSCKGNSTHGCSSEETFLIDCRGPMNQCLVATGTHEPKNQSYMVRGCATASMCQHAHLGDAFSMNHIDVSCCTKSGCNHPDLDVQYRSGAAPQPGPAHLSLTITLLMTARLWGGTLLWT
Excerpt: For 5 out of the 16 patients, the resected tumor specimens were cut in half, sliced at the OR, and imaged with the Elevision® imaging system. The specimens underwent routine pathologic processing at the Department of Pathology. The slices were frozen with a Milestone PrestoCHILL cryoembedder/freezer and, cut into 8 µm tissue slices with a Leica® CM1860 Cryostat and placed on glass slides. To evaluate the overlap between fluorescence signal from FG001, uPAR-expression, and tumor tissue, the cryosections were first fluorescently scanned with an Amersham Typhoon^TM scanner from Cytiva and, thereafter, stained using immunohistochemistry for uPAR and Cytokeratin (CK), and hematoxylin and eosin (H&E) stained. The Typhoon^TM scanner settings were PMT: 350-500 V and excitation wavelength: 785 nm. The immunohistochemical staining for uPAR was performed with the antibody GTX100467 (Gentex, USA), and Cytokeratin with M351529-2 Dako (Agilent). The H&E stain was performed according to standard practice. All tissue slides were scanned with the high-resolution AxioScan 7 (Zeiss, Germany). […]
The different stained tissue sections were aligned using the BigWarp plugin in Fiji (NIH, open-source version: 1.54f) software. A pathologist delineated the tumors, and the fluorescence imaging generated from the Typhoon scanner was overlayed on the HE stains using ImageJ (NIH, open source), (see Figure 3M).

[2] = system: oral and oropharyngeal squamous cell carcinoma (OSCC, OPSCC); experiment: Longitudinal preoperative transoral imaging of the tumors; format: in vivo, human
Method: For 3 out of the 16 patients, longitudinal preoperative imaging of their tumors was captured during the period before surgery. […] Minor deviations from the protocol requirements were due to prioritization of the patients' night sleep before surgery - therefore, no images were taken in the timespan between 8 and 14 hrs post-injection. All longitudinal images were captured with the same camera-to-tumor distance (app. 25-35 cm) in a darkened room. The TBR value was calculated for all time points and plotted as a function of time, see Figure 4 for a case example.

In the case of `CC(C)C[C@H](NC(=O)[C@H](Cc1ccc(O)cc1)NC(=O)[C@@H](CCCNC(=N)N)NC(=O)[C@@H](CO)NC(=O)[C@H](Cc1ccccc1)NC(=O)[C@H](CC1CCCCC1)NC(=O)[C@H](CC(=O)O)NC(=O)[C@H](CCC(=O)O)NC(=O)[C@H](CCC(=O)O)NC(=O)CCCCC[N+]1=C(C=CC=CC=CC=C2N(CCCCS(=O)(=O)[O-])c3ccc4ccccc4c3C2(C)C)C(C)(C)c2c1ccc1ccccc21)C(=O)N[C@@H](Cc1c[nH]c2ccccc12)C(=O)N[C@@H](CO)C(=O)O` [FG001, ICG-Glu-Glu-AE105] (X1-EED[Cha]F[dS][dR]YLWS-OH; N-terminus and C-terminus assumed), the “Optical signal in resected cancer tissues after formalin fixation and paraffin embedding” value ([1]; days following surgery) is reported as “preserved”, the “Co-localization between uPAR-expression and FG001 fluorescence signal” value ([1]; microscopic fluorescence imaging, tumor cross-sections of 5 patients across the 3 dose cohorts) is reported as “high level of co-localization” and the “Time post-injection after which tumor-specific signals could be detected” value ([2]; FG001 16 mg i.v., three awake patients, transoral) is reported as 2 h. For the same compound, the “TBR in longitudinal imaging” value ([2]; FG001 16 mg i.v., three awake patients, transoral, from 2 hrs until 19 hrs post-injection) was “above 2” and the “Window for drug administration prior to surgery” value ([2]; indicated by the longitudinal data for tumor imaging) was 2 to 19 h.
